Read-outs that look alike come from different tables or passages of the source.
Columns and labels:
[1] = Pharmacokinetic test in mice; assay type: in vivo, ICR mice; conditions: male, ICR, mouse, plasma, 5 mg/kg, PO - 5 mpk
Method: Dosage preparation: The dosing solution was prepared on the day of dosing. 2 mg of compound was weighed and dissolved in 5% DMSO+10% solutol+85% saline to prepare a solution for intravenous administration at a concentration of 0.2 mg/mL. 2 mg of compound was weighed and dissolved in 25% PEG 200+75% (0.5% MC) to obtain a solution for oral administration at a concentration of 1 mg/mL.
Six healthy male naïve ICR mice, weighing 25 to 30 g, were divided into two groups (intravenous and oral groups) with three in each group, and administered in a single dose. After 3 days of acclimatization, the mice were fasted overnight (10 to 12 hours) the night before the experiment, but had free access to water during the experiment, and the diet was resumed 4 hours after administration. After intravenous and oral administration, the timer was started. Blood was collected via the orbital venous plexus at the scheduled time points (IV&PO: 0.083, 0.25, 0.5, 1, 2, 4, 6, 8, and 24 hours). 40 μL of whole blood was collected at each point and added to a 1.5 mL EP tube containing sodium heparin. The collected whole blood was vibrated twice on a vortex mixer, mixed well, placed on wet ice, and centrifuged at 8000 rpm for 5 minutes at 4° C. within 1 hour. The supernatant plasma was stored in a −80° C. freezer until processing for analysis.

[2] = tested on: plasma LPA 18:1 and LPA 18:2; experiment: Human plasma ex vivo assay (LPA 18:1 / 18:2 by LC-MS/MS); assay type: biochemical; conditions: 37° C., 2 hours
Method in brief: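 Human plasma incubated 2 h at 37° C with compound (8 points, 1:3 dilution, top 10 μM, 0.1% DMSO), then quenched with 0.1% FA containing LPA 17:0 internal standard.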

[3] = target: ATX (Homo sapiens (Human), UniProt Q13822); experiment: ATX enzyme inhibition assay (Amplex UltraRed/choline oxidase/HRP, 16:0 Lyso PC substrate); assay type: biochemical
Method in brief: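 ATX (2× stock […]) preincubated with compound for 10 min at room temperature in assay buffer at pH 8.5 or 7.5. Reaction started with 16:0 Lyso PC, choline oxidase, HRP and Amplex UltraRed (2.5× working stock); fluorescence read kinetically (ex 550/em 590 nm) for 60 min.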

[4] = LPA 18:1, read-out: Human plasma ex vivo assay IC50 (18:1 LPA)
[5] = LPA 18:2, read-out: Human plasma ex vivo assay IC50 (18:2 LPA)
[6] = assay buffer pH 7.5, read-out: IC50 (nM) pH 7.5
[7] = assay buffer pH 8.5, read-out: IC50 (nM) pH 8.5

| SMILES | AUC [1] | Cmax [1] | Tmax [1] | half-life [1] | IC50 [2, 4] | IC50 [2, 5] | IC50 [3, 6] | IC50 [3, 7] |
| --- | --- | --- | --- | --- | --- | --- | --- | --- |
| Cc1cc(N2CC3(CN(C(=O)C(C)(C)O)C3)C2)cc2c(N(C)c3nc(-c4ccc(F)cc4)c(C#N)s3)c3c(nc12)COC3 [Example C31] | 32300 ng·h/mL | 3480 ng/mL | 25.2 min | 226 min |  |  |  |  |
| Cc1cc(N2CC3(CN(C(=O)C(C)(C)O)C3)C2)cc2c(N(C)c3nc(-c4ccc(F)cc4)c(C#N)s3)c3c(nc12)CCO3 [Example C27] | 27600 ng·h/mL | 2010 ng/mL | 400 min | 239 min |  |  |  |  |
| CN(c1nc(-c2ccc(F)cc2)c(C#N)s1)c1c2c(nc3c(F)cc(N4CCN(C(=O)[C@H]5CCOC5)CC4)cc13)CCC2 [Example C7] |  |  |  |  | 354 nM | 401 nM | 1140 nM | 193 nM |
| CN(c1nc(-c2ccc(F)cc2)c(C#N)s1)c1c2c(nc3c(F)cc(N4CCN(S(C)(=O)=O)[C@H](CO)C4)cc13)CCC2 [Example B3] |  |  |  |  | 170 nM | 165 nM | 171 nM | 41.2 nM |
| CN(c1nc(-c2ccc(F)cc2)c(C#N)s1)c1c2c(nc3ncc(N4CCN(CC(=O)N5CC(O)C5)CC4)cc13)CCC2 [Example A21] |  |  |  |  | 70.2 nM | 55.9 nM | 125 nM | 23.7 nM |
| CN(c1nc(-c2ccc(F)cc2)c(C#N)s1)c1c2c(nc3ccc(N4CCN(CC(=O)N5CC(O)C5)CC4)cc13)CC2 [Example A7] |  |  |  |  | 74.2 nM | 72.7 nM | 85.1 nM | 22.2 nM |
| CN(c1nc(-c2ccc(F)cc2)c(C#N)s1)c1c2c(nc3c(F)cc(N4CC5(CN(C(=O)C6(O)CCOCC6)C5)C4)cc13)[C@@H](O)CC2 (single isomer, unassigned) [Example E15-a] |  |  |  |  | 392 nM | 388 nM |  | 14.9 nM |
| CN(c1nc(-c2ccc(F)cc2)c(C#N)s1)c1c2c(nc3c(F)cc(N4CC5(CN(CC(=O)N6CC(CO)C6)C5)C4)cc13)CC2 [Example A18] |  |  |  |  | 162 nM | 192 nM | 228 nM | 61.1 nM |
| CN(c1nc(-c2ccc(F)cc2)c(C#N)s1)c1c2c(nc3ccc(N4CCN(CC(=O)N5CC(O)C5)CC4)cc13)CCO2 [Example A3] |  |  |  |  | 109 nM | 103 nM | 214 nM | 27.8 nM |
| CN(c1nc(-c2ccc(F)cc2)c(C#N)s1)c1c2c(nc3c(F)cc(N4CCC5(CCN(C(=O)[C@@H]6CCOC6)CC5)C4)cc13)CCC2 [Example C15] |  |  |  |  | 285 nM | 326 nM | 232 nM | 60.6 nM |
| CN(c1nc(-c2ccc(F)cc2)c(C#N)s1)c1c2c(nc3c(F)cc(N4CC5(CN(C(=O)C(C)(C)O)C5)C4)cc13)CCC2 [Example C32] | 21400 ng·h/mL | 2660 ng/mL | 30 min | 154 min |  |  |  |  |
| CN(c1nc(-c2ccc(F)cc2)c(C#N)s1)c1c2c(nc3ccc(N4CCN(CC(=O)N5CC(O)C5)CC4)cc13)CCC2 [Example A1] |  |  |  |  | 183 nM | 196 nM | 138 nM | 27.7 nM |
| CN(c1nc(-c2ccc(F)cc2)c(C#N)s1)c1c2c(nc3ccc(N4CCN(CC(=O)N5CC(O)C5)CC4)nc13)CCC2 [Example A10] |  |  |  |  | 192 nM | 157 nM | 559 nM | 60.7 nM |
| CN(c1nc(-c2ccc(F)cc2)c(C#N)s1)c1c2c(nc3cnc(N4CCN(CC(=O)N5CC(O)C5)CC4)cc13)CCC2 [Example A20] |  |  |  |  | 170 nM | 203 nM | 645 nM | 84 nM |
| CN(c1nc(-c2ccc(F)cc2)c(C#N)s1)c1c2c(nc3ccc(N4CC5(CN(C(=O)[C@H]6CCOC6)C5)C4)nc13)CCO2 [Example C10] |  |  |  |  | 147 nM | 134 nM | 33.6 nM | 18.6 nM |
| CN(c1nc(-c2ccc(F)cc2)c(C#N)s1)c1c2c(nc3c(F)cc(N4CC5(CN(C(=O)C6(O)CCOCC6)C5)C4)cc13)COC2 [Example C20] |  |  |  |  | 677 nM | 362 nM |  | 24.2 nM |

More lines, now with the values ahead:

| AUC [1] | Cmax [1] | Tmax [1] | half-life [1] | IC50 [2, 4] | IC50 [2, 5] | IC50 [3, 6] | IC50 [3, 7] | SMILES |
| --- | --- | --- | --- | --- | --- | --- | --- | --- |
|  |  |  |  | 200 nM | 239 nM | 112 nM | 32.8 nM | CN(c1nc(-c2ccc(F)cc2)c(C#N)s1)c1c2c(nc3c(F)cc(N4CCN(CC(=O)N5CC(CO)C5)CC4)cc13)CCC2 [Example A5] |
|  |  |  |  | 175 nM | 160 nM |  | 15.4 nM | C[C@H]1CN(c2cc(F)c3nc4c(c(N(C)c5nc(-c6ccc(F)cc6)c(C#N)s5)c3c2)CCC4O)CCN1CC(=O)N1CC(O)C1 (stereo partly shown) [Example E8] |
|  |  |  |  | 410 nM | 436 nM |  | 16.8 nM | CN(c1nc(-c2ccc(F)cc2)c(C#N)s1)c1c2c(nc3c(F)cc(N4CC5(CN(C(=O)C(C)(C)O)C5)C4)cc13)C(O)CC2 (stereo not shown) [Example E16] |
|  |  |  |  | 299 nM | 359 nM | 1180 nM | 145 nM | CN(c1nc(-c2ccc(F)cc2)c(C#N)s1)c1c2c(nc3c(F)cc(N4CC5(CCN(CC(=O)N6CC(O)C6)CC5)C4)cc13)CCC2 [Example A11] |
|  |  |  |  | 351 nM | 323 nM | 699 nM | 86.8 nM | CN(c1nc(-c2ccc(F)cc2)c(C#N)s1)c1c2c(nc3c(F)cc(N4CC5(CN(CC(=O)N6CC(O)C6)C5)C4)cc13)CCC2 [Example A9] |
|  |  |  |  | 384 nM | 430 nM |  | 17.9 nM | CN(c1nc(-c2ccc(F)cc2)c(C#N)s1)c1c2c(nc3c(F)cc(N4CCN(CC(=O)N5CC(C)(O)C5)CC4)cc13)[C@@H](O)CC2 (single isomer, unassigned) [Example E10-a] |
|  |  |  |  | 466 nM | 486 nM |  | 181 nM | CN(c1nc(-c2ccc(F)cc2)c(C#N)s1)c1c2c(nc3c(F)cc(N4CC5(CN(CC(=O)N6CC(O)C6)C5)C4)cc13)COC2 [Example A24] |
|  |  |  |  | 139 nM | 270 nM |  | 16.2 nM | CN(c1nc(-c2ccc(F)cc2)c(C#N)s1)c1c2c(nc3c(F)cc(N4CCN(CC(=O)N5CC(C)(O)C5)CC4)cc13)C(O)CC2 (stereo not shown) [Example E10] |
|  |  |  |  | 280 nM | 324 nM |  | 22.5 nM | C[C@H]1CN(c2cc(F)c3nc4c(c(N(C)c5nc(-c6ccc(F)cc6)c(C#N)s5)c3c2)CC[C@@H]4O)CCN1CC(=O)N1CC(O)C1 (single isomer, unassigned) [Example E8-a] |
|  |  |  |  | 160 nM | 176 nM | 174 nM | 52.1 nM | CN(c1nc(-c2ccc(F)cc2)c(C#N)s1)c1c2c(nc3c(F)cc(N4CCN(CC(=O)N5CC(O)C5)CC4)cc13)CCC2 [Example A4] |
|  |  |  |  | 266 nM | 271 nM |  | 13.3 nM | CN(c1nc(-c2ccc(F)cc2)c(C#N)s1)c1c2c(nc3c(F)cc(N4CC5(CN(C(=O)C6(O)CCOCC6)C5)C4)cc13)C(O)CC2 (stereo not shown) [Example E15] |
|  |  |  |  | 304 nM | 338 nM |  | 228 nM | Cc1cc(N2CCN(CC(=O)N3CC(O)C3)CC2)cc2c(N(C)c3nc(-c4ccc(F)cc4)c(C#N)s3)c3c(nc12)CCC3 [Example A14] |
|  |  |  |  | 464 nM | 392 nM |  | 21.5 nM | C[C@@H]1CN(c2cc(F)c3nc4c(c(N(C)c5nc(-c6ccc(F)cc6)c(C#N)s5)c3c2)CC[C@@H]4O)CCN1CC(=O)N1CC(O)C1 (single isomer, unassigned) [Example E9-a] |
|  |  |  |  | 113 nM | 310 nM |  | 334 nM | CN(c1nc(-c2ccc(F)cc2)c(C#N)s1)c1c2c(nc3c(F)cc(N4CC5(CN(C(=O)[C@@]6(O)CCOC6)C5)C4)cc13)[C@@H](O)CC2 (single isomer, unassigned) [Example E19-2b] |
|  |  |  |  | 286 nM | 341 nM | 282 nM | 75.7 nM | CN(c1nc(-c2ccc(F)cc2)c(C#N)s1)c1c2c(nc3c(F)cc(N4CCN(CC(=O)N5CC(F)C5)CC4)cc13)CCC2 [Example A16] |
|  |  |  |  | 369 nM | 351 nM |  | 15.2 nM | C[C@H]1CN(CC(=O)N2CC(O)C2)CCN1c1cc(F)c2nc3c(c(N(C)c4nc(-c5ccc(F)cc5)c(C#N)s4)c2c1)CC[C@@H]3O (single isomer, unassigned) [Example E7-a] |
|  |  |  |  | 263 nM | 261 nM |  | 14.4 nM | CN(c1nc(-c2ccc(F)cc2)c(C#N)s1)c1c2c(nc3c(F)cc(N4CCN(CC(=O)N5CC(C)(O)C5)CC4)cc13)[C@H](O)CC2 (single isomer, unassigned) [Example E10-b] |
|  |  |  |  | 149 nM | 327 nM |  | 15.4 nM | C[C@H]1CN(CC(=O)N2CC(O)C2)CCN1c1cc(F)c2nc3c(c(N(C)c4nc(-c5ccc(F)cc5)c(C#N)s4)c2c1)CCC3O (stereo partly shown) [Example E7] |
